Legend:
[1] = target: T1, Gal4-Nurr1 (wt human Nurr1 LBD) (Homo sapiens, UniProt P43354); assay: Gal4-Nurr1 hybrid reporter gene assay (wild-type); type: cell-based
T1 construct: expressed in transfected cells; host or cells: HEK293T

[2] = target: full-length human Nurr1 (NBRE) (Homo sapiens, UniProt P43354); assay: Full-length Nurr1 reporter gene assay, monomer response element (NBRE); type: cell-based
[3] = target: full-length human Nurr1 (NurRE) (Homo sapiens, UniProt P43354); assay: Full-length Nurr1 reporter gene assay, homodimer response element (NurRE); type: cell-based
full-length human Nurr1 (NurRE), sequence (P43354 whole entry): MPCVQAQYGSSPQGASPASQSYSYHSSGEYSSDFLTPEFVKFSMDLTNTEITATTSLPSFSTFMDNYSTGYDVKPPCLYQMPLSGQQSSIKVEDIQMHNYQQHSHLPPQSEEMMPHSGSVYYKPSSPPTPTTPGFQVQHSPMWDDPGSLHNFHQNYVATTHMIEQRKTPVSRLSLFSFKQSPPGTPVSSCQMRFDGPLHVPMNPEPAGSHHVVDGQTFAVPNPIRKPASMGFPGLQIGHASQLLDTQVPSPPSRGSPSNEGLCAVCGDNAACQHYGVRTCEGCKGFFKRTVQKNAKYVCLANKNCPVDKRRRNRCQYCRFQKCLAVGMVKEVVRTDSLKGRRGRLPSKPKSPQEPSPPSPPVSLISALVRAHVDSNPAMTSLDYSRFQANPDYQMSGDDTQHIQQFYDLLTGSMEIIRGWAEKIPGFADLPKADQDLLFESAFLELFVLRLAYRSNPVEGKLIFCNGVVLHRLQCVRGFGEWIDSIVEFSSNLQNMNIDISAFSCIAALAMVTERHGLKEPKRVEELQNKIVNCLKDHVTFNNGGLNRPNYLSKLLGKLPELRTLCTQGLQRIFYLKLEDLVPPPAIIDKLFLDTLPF

[4] = target: full-length human Nurr1 / RXR heterodimer (DR5) (Homo sapiens, UniProt P43354); assay: Full-length Nurr1 reporter gene assay, RXR-heterodimer response element (DR5); type: cell-based
full-length human Nurr1 / RXR heterodimer (DR5), sequence (P43354 whole entry, the tested form may be a part, one chain of several): as the sequence (P43354 whole entry) above

[5] = target: T2, Nurr1 LBD - NCOR1 (Homo sapiens, UniProt P43354); assay: HTRF co-regulator recruitment assay, NCOR1; type: biochemical; conditions: fluorescein labeled corepressor peptide, read-out: IC50 NCOR1 displacement from Nurr1 LBD
T2 construct: a plasmid construct encoding Nurr1 (aa 364-598) in a pMal vector system; MBP (cleaved yes); made in house; host or cells: E. coli BL21-R3-pRARE2
T2 sequence (P43354 364-598): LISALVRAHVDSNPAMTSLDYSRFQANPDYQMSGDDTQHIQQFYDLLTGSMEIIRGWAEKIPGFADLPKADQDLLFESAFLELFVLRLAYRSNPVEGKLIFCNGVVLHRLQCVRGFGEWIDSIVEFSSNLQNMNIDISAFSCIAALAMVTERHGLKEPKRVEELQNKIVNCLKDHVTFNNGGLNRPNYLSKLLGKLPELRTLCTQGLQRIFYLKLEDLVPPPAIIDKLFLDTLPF
Excerpt: (§1) Homogeneous time-resolved fluorescence energy transfer (HTRF) experiments were used to study the recruitment of co-regulator peptides to the Nurr1-LBD in the presence or absence of test compounds. Terbium cryptate as streptavidin conjugate (Tb-SA; Cisbio Bioassays, Codolet, France) was used as FRET donor for stable coupling to biotinylated recombinant Nurr1 LBD protein. Fluorescein-labeled co-regulator peptides were used as FRET acceptors (peptide sequences are reported in Supplementary Tab. 4). […] Recruitment of CoREST and Lmx1b peptides was studied using biotin-labeled peptides for stable coupling to Tb-SA as FRET donor and sGFP-Nurr1[26] LBD as FRET acceptor. […] Experiments were carried out in 384 well format using white flat bottom small volume polystyrol microtiter plates (Greiner Bio-One, Frickenhausen, Germany). After 2 h incubation at rt, fluorescence intensities (FI) after excitation at 340 nm were recorded at 520 nm for fluorescein acceptor fluorescence and 620 nm for Tb-SA donor fluorescence on a SPARK plate reader (Tecan Group Ltd.). FI520 nm was divided by FI620 nm and multiplied with 10,000 to give a dimensionless HTRF signal.

[6] = target: T3, Nurr1 LBD - SMRT (Homo sapiens, UniProt P43354); assay: HTRF co-regulator recruitment assay, SMRT; type: biochemical; conditions: fluorescein labeled corepressor peptide, read-out: IC50 SMRT displacement from Nurr1 LBD
T3 construct: a plasmid construct encoding Nurr1 (aa 364-598) in a pMal vector system; MBP (cleaved yes); made in house; host or cells: E. coli BL21-R3-pRARE2
T3 sequence (P43354 364-598): as above
Excerpt: as §1

[7] = target: T4, Nurr1 LBD - PIASγ (Homo sapiens, UniProt P43354); assay: HTRF co-regulator recruitment assay, PIASγ; type: biochemical; conditions: fluorescein labeled corepressor peptide, read-out: IC50 PIASγ displacement from Nurr1 LBD
T4 construct: a plasmid construct encoding Nurr1 (aa 364-598) in a pMal vector system; MBP (cleaved yes); made in house; host or cells: E. coli BL21-R3-pRARE2
T4 sequence (P43354 364-598): as above
Excerpt: as §1

[8] = target: T5, Nurr1 LBD - NRIP (Homo sapiens, UniProt P43354); assay: HTRF co-regulator recruitment assay, NRIP; type: biochemical; conditions: fluorescein labeled coactivator peptide, read-out: IC50 NRIP displacement from Nurr1 LBD
T5 construct: a plasmid construct encoding Nurr1 (aa 364-598) in a pMal vector system; MBP (cleaved yes); made in house; host or cells: E. coli BL21-R3-pRARE2
T5 sequence (P43354 364-598): as above
Excerpt: as §1

[9] = target: T6, Nurr1 LBD - NCoA6 (Homo sapiens, UniProt P43354); assay: HTRF co-regulator recruitment assay, NCoA6; type: biochemical; conditions: fluorescein labeled coactivator peptide, read-out: IC50 NCoA6 displacement from Nurr1 LBD
T6 construct: a plasmid construct encoding Nurr1 (aa 364-598) in a pMal vector system; MBP (cleaved yes); made in house; host or cells: E. coli BL21-R3-pRARE2
T6 sequence (P43354 364-598): as above
Excerpt: as §1

[10] = target: T7, Nurr1 LBD - CoREST (Homo sapiens, UniProt P43354); assay: HTRF co-regulator recruitment assay, CoREST; type: biochemical; conditions: biotinylated CoREST peptide, sGFP-Nurr1 LBD
T7 construct: sGFP-Nurr1[26]; LBD as FRET acceptor; made in house
T7 sequence (P43354 360-595 limits assumed): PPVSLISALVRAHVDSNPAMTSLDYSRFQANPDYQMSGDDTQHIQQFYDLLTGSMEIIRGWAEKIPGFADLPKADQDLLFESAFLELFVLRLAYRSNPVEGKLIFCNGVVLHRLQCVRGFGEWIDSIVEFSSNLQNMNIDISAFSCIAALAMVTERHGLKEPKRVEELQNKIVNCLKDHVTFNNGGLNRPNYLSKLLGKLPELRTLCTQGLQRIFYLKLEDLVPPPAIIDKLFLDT
Excerpt: as §1

[11] = target: T8, Nurr1 LBD - Lmx1b (Homo sapiens, UniProt P43354); assay: HTRF co-regulator recruitment assay, Lmx1b; type: biochemical; conditions: biotinylated Lmx1b peptide, sGFP-Nurr1 LBD
T8 construct: sGFP-Nurr1[26]; LBD as FRET acceptor; made in house
T8 sequence (P43354 360-595 limits assumed): as above
T8 sequence (O60663 382-402 partner limits assumed): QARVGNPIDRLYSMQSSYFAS
Excerpt: as §1

[12] = target: T9, Nurr1 LBD - RXRα LBD heterodimer (Homo sapiens, UniProt P43354); assay: ITC Nurr1-RXR dimerization; conditions: ITC stoichiometry, ligand 200 µM
T9 sequence (P43354 364-598, one chain of several): as the sequence (P43354 364-598) above

[13] = target: T10, Nurr1 LBD (wt) (Homo sapiens, UniProt P43354); assay: ITC ligand binding to Nurr1 wt LBD; conditions: for n ligand binding to Nurr1 LBD: ITC stoichiometry; for n ligand binding to Nurr1 LBD / TΔS ligand binding to Nurr1 LBD: wt LBD
Target sequence in this assay (P43354 360-595 limits assumed): as the sequence (P43354 360-595 limits assumed) above

[14] = target: T9, Nurr1 LBD - RXRα LBD heterodimer; assay: HTRF Nurr1-RXRα heterodimer formation assay; type: biochemical; parameters: a plasmid construct encoding Nurr1 (aa 364-598) in a pMal vector system; MBP (cleaved yes); made in house; host or cells: E.coli BL21-R3-pRARE2 (biotinylated Nurr1 LBD)
Procedure: Assay solutions were prepared in HTRF assay buffer supplemented with 0.1% (w/v) CHAPS as well as 1% DMSO with test compounds at fixed concentrations or DMSO alone as negative control (apo). […] Samples were equilibrated at RT for 2 h before FI520 and FI620 were recorded after excitation at 340 nm, and the HTRF signal was calculated as described above.

[15] = target: T10, Nurr1 LBD (wt); assay: Binding kinetics by biolayer interferometry (BLI); parameters: For generation of biotinylated Nurr1 a plasmid construct encoding Nurr1 (aa 364-598) in a pMal vector system; MBP (cleaved yes); made in house; host or cells: E.coli BL21-R3-pRARE2; conditions: read-out: dissociation rate koff
Target sequence in this assay (P43354 364-598): as the sequence (P43354 364-598) above
Procedure: BLI measurements were conducted using the Octet R8 instrument (Sartorius). Nurr1 was enzymatically biotinylated using BirA, and Super Streptavidin (SSA) sensors were used to capture the biotinylated Nurr1. Prior to the assay, SSA sensors were pre-soaked for 10 minutes in a buffer containing 20 mM HEPES (pH 7.4), 150 mM NaCl, 0.01% Tween-20, and 0.5% DMSO. The sensors were then loaded with 2 μM biotinylated Nurr1 for 10 min, reaching a response of ~10 nm. Free biotin sites were blocked by incubating the sensors with 20 μg/ml biocytin for 1 minute. After quenching, the sensors were washed for 20 min with HEPES buffer and equilibrated for 5 min in the same buffer supplemented with 1% PEG3K. The binding of compounds was monitored for 120 s, followed by a 120 s dissociation phase. Two control experiments were conducted: one with sensors coated with the protein but without the compound, and the other with uncoated biosensors exposed to the compound at corresponding concentrations. These controls were used to correct for non-specific binding and baseline interference.

[16] = target: T11, Gal4-Nurr1 I500F (Homo sapiens, UniProt P43354, I500F); assay: Gal4-Nurr1 hybrid reporter gene assay, mutant I500F; type: cell-based; conditions: vs wt
T11 construct: expressed in transfected cells; host or cells: HEK293T
T11 sequence (P43354 360-595 I500F limits assumed): as the sequence (P43354 360-595 limits assumed) above, with I141F counted along it

[17] = target: T12, Gal4-Nurr1 H372F (Homo sapiens, UniProt P43354, H372F); assay: Gal4-Nurr1 hybrid reporter gene assay, mutant H372F; type: cell-based; conditions: vs wt
T12 construct: expressed in transfected cells; host or cells: HEK293T
T12 sequence (P43354 360-595 H372F limits assumed): as the sequence (P43354 360-595 limits assumed) above, with H13F counted along it

[18] = target: T13, Gal4-Nurr1 I500W/V373W (Homo sapiens, UniProt P43354, I500W/V373W); assay: Gal4-Nurr1 hybrid reporter gene assay, double mutant I500W/V373W; type: cell-based; conditions: fold reporter activation vs. DMSO
T13 construct: expressed in transfected cells; host or cells: HEK293T
T13 sequence (P43354 360-595 V373W/I500W limits assumed): as the sequence (P43354 360-595 limits assumed) above, with V14W, I141W counted along it

T1 sequence (P43354 360-595 limits assumed): as the sequence (P43354 360-595 limits assumed) above
full-length human Nurr1 (NBRE), sequence (P43354 whole entry): as the sequence (P43354 whole entry) above

O=C(O)C1=C(C(=O)Nc2ccc(-c3ccccc3OCc3ccccc3)cc2F)CCC1 [compound 1, 2-{[2’-(Benzyloxy)-3-fluoro-[1,1’-biphenyl]-4-yl]carbamoyl}cyclopent-1-ene-1-carboxylic acid]
EC50 ([1]; HEK293T, Gal4 hybrid reporter, wt): 30 ± 10 nM
potency on Gal4-Nurr1 relative to vidofludimus ([1]; higher potency than vidofludimus): 10 fold
EC50 [2]: 60 ± 10 nM
EC50 [3]: 70 ± 10 nM
EC50 [4]: 60 ± 10 nM
IC50 [5]: 4000 ± 1000 nM
IC50 [6]: 5000 ± 2000 nM
IC50 [7]: 12000 ± 2000 nM
IC50 [8]: 7000 ± 2000 nM
IC50 [9]: 7000 ± 2000 nM
effect on CoREST recruitment to Nurr1 LBD [10]: slightly reduced
effect on Lmx1b recruitment to Nurr1 LBD [11]: no effect
n Nurr1 LBD – RXR LBD [12]: 0.98±0.09
Kd [13]: 110 nM
n ligand binding to Nurr1 LBD [13]: 1.00±0.04
TΔS ligand binding to Nurr1 LBD ([13]; ITC): -5.5 ± 1.8 kcal/mol
affinity to Nurr1 LBD relative to vidofludimus ([13]; enhanced affinity vs vidofludimus, ITC): 7 fold
effect on Nurr1-RXR heterodimerization [14]: weakened
koff [15]: 0.0224 s⁻¹

CC(C)n1c(/C=C/C(O)CC(O)CC(=O)O)c(-c2ccc(F)cc2)c2ccccc21 (stereo not shown) [fluvastatin, reference compound]
effect of I500F mutation on Nurr1 activation by the ligand [16]: did not alter
effect of H372F mutation on Nurr1 activation by the ligand [17]: did not alter
activation of Gal4-Nurr1 double mutant I500W/V373W [18]: responded
effect on CoREST recruitment to Nurr1 LBD [10]: slightly reduced
n ligand binding to Nurr1 LBD [13]: 0.90±0.04
TΔS ligand binding to Nurr1 LBD ([13]; ITC): 3.7 ± 0.3 kcal/mol
